In brackets after ≈: the same amount, converted by molar mass.
test system: Mycobacterium avium; test: Minimum inhibitory concentration required against Mycobacterium avium isolate from patient number MAC100; type: functional

SMILES	MIC
COc1ccc(CCCCCC(=O)O)cc1Cc1cnc(N)nc1N	32 µg/mL (≈ 92.9 µM)
COc1ccc(C#CCOc2cccc(C(=O)O)c2)cc1Cc1cnc(N)nc1N	> 32 µg/mL
COc1ccc(OCCCCCCC(=O)O)cc1Cc1cnc(N)nc1N	16 µg/mL (≈ 42.7 µM)
COc1ccc(OCc2ccc(C(=O)O)cc2)cc1Cc1cnc(N)nc1N	> 32 µg/mL
COc1ccc(CCCCCCC(=O)O)cc1Cc1cnc(N)nc1N	> 32 µg/mL
COc1ccc(OCCCCC(=O)O)cc1Cc1cnc(N)nc1N	16 µg/mL (≈ 46.2 µM)
COc1ccc(C#Cc2cccc(C(=O)O)c2)cc1Cc1cnc(N)nc1N	> 64 µg/mL

target: T1, Bifunctional dihydrofolate reductase-thymidylate synthase (Toxoplasma gondii, UniProt Q07422)
T1 sequence (Q07422 whole entry): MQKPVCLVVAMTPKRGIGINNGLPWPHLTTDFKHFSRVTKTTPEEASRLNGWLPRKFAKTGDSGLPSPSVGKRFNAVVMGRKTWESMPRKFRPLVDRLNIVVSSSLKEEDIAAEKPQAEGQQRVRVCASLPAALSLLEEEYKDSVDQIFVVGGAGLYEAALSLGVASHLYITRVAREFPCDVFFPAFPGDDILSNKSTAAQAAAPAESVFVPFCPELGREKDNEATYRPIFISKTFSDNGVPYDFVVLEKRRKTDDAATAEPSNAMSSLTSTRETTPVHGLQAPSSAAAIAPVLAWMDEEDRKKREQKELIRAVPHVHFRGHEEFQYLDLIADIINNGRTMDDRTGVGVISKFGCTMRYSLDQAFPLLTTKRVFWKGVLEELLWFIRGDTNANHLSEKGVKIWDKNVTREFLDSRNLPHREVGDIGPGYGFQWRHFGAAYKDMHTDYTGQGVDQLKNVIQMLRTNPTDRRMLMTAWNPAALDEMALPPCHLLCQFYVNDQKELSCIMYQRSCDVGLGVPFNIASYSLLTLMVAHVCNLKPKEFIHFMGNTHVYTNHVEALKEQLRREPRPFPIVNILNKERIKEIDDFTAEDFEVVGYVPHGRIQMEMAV

SMILES	IC50
COc1ccc(C#Cc2cccc(C(=O)O)c2)cc1Cc1cnc(N)nc1N	0.0055 µM

target: T2, Dihydrofolate reductase (Rattus norvegicus, UniProt Q920D2)
T2 sequence (Q920D2 whole entry): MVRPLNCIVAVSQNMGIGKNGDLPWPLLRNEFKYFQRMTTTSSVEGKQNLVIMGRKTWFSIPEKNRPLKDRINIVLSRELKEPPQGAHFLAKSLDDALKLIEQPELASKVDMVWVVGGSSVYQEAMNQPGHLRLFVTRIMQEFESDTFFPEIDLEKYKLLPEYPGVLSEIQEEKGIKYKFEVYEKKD
Description: Inhibitory concentration against dihydrofolate reductase of rat liver

SMILES	IC50
COc1ccc(C#Cc2cccc(C(=O)O)c2)cc1Cc1cnc(N)nc1N	0.65 µM

test system: Mycobacterium avium; test: Minimum inhibitory concentration required against Mycobacterium avium isolate from patient number MAC16; type: functional

SMILES	MIC
COc1ccc(CCCCCC(=O)O)cc1Cc1cnc(N)nc1N	32 µg/mL (≈ 92.9 µM)
COc1ccc(C#CCOc2cccc(C(=O)O)c2)cc1Cc1cnc(N)nc1N	> 32 µg/mL
COc1ccc(OCCCCCCC(=O)O)cc1Cc1cnc(N)nc1N	16 µg/mL (≈ 42.7 µM)
COc1ccc(OCc2ccc(C(=O)O)cc2)cc1Cc1cnc(N)nc1N	> 32 µg/mL
COc1ccc(CCCCCCC(=O)O)cc1Cc1cnc(N)nc1N	16 µg/mL (≈ 44.6 µM)
COc1ccc(OCCCCC(=O)O)cc1Cc1cnc(N)nc1N	16 µg/mL (≈ 46.2 µM)
COc1ccc(C#Cc2cccc(C(=O)O)c2)cc1Cc1cnc(N)nc1N	> 64 µg/mL

target: T3, Dihydrofolate reductase (Pneumocystis carinii, UniProt P16184)
T3 sequence (P16184 whole entry): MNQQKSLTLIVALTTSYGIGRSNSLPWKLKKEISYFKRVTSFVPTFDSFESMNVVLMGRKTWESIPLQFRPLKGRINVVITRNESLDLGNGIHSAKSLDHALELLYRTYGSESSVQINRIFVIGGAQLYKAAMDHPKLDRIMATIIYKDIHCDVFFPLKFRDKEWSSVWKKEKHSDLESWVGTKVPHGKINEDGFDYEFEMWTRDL
Description: Inhibitory concentration against dihydrofolate reductace enzyme of Pneumocystis carinii

SMILES	IC50
COc1ccc(C#Cc2cccc(C(=O)O)c2)cc1Cc1cnc(N)nc1N	0.023 µM

target: T4, Dihydrofolate reductase (Mycobacterium avium, UniProt O30463)
T4 sequence (O30463 whole entry): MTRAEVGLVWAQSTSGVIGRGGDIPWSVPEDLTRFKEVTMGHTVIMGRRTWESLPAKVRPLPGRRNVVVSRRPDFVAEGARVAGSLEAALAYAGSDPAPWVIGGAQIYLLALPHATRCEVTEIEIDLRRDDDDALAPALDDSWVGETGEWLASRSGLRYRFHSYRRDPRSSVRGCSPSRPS
Description: Inhibitory concentration against dihydrofolate reductase of Mycobacterium avium

SMILES	IC50
COc1ccc(C#Cc2cccc(C(=O)O)c2)cc1Cc1cnc(N)nc1N	0.0015 µM

test system: Mycobacterium avium; test: Minimum inhibitory concentration required against Mycobacterium avium isolate from patient number MAC109; type: functional

SMILES	MIC
COc1ccc(CCCCCC(=O)O)cc1Cc1cnc(N)nc1N	32 µg/mL (≈ 92.9 µM)
COc1ccc(C#CCOc2cccc(C(=O)O)c2)cc1Cc1cnc(N)nc1N	> 32 µg/mL
COc1ccc(OCCCCCCC(=O)O)cc1Cc1cnc(N)nc1N	8 µg/mL (≈ 21.4 µM)
COc1ccc(OCc2ccc(C(=O)O)cc2)cc1Cc1cnc(N)nc1N	> 32 µg/mL
COc1ccc(CCCCCCC(=O)O)cc1Cc1cnc(N)nc1N	32 µg/mL (≈ 89.3 µM)
COc1ccc(OCCCCC(=O)O)cc1Cc1cnc(N)nc1N	16 µg/mL (≈ 46.2 µM)
COc1ccc(C#Cc2cccc(C(=O)O)c2)cc1Cc1cnc(N)nc1N	> 64 µg/mL

test system: Mycobacterium avium; test: Minimum inhibitory concentration required against Mycobacterium avium isolate from patient number MAC101; type: functional

SMILES	MIC
COc1ccc(CCCCCC(=O)O)cc1Cc1cnc(N)nc1N	16 µg/mL (≈ 46.5 µM)
COc1ccc(C#CCOc2cccc(C(=O)O)c2)cc1Cc1cnc(N)nc1N	> 32 µg/mL
COc1ccc(OCCCCCCC(=O)O)cc1Cc1cnc(N)nc1N	8 µg/mL (≈ 21.4 µM)
COc1ccc(OCc2ccc(C(=O)O)cc2)cc1Cc1cnc(N)nc1N	> 32 µg/mL
COc1ccc(CCCCCCC(=O)O)cc1Cc1cnc(N)nc1N	32 µg/mL (≈ 89.3 µM)
COc1ccc(OCCCCC(=O)O)cc1Cc1cnc(N)nc1N	16 µg/mL (≈ 46.2 µM)
COc1ccc(C#Cc2cccc(C(=O)O)c2)cc1Cc1cnc(N)nc1N	> 64 µg/mL

test system: Mycobacterium avium; test: Minimum inhibitory concentration required against Mycobacterium avium isolate from patient number MAC108; type: functional

SMILES	MIC
COc1ccc(CCCCCC(=O)O)cc1Cc1cnc(N)nc1N	> 32 µg/mL
COc1ccc(C#CCOc2cccc(C(=O)O)c2)cc1Cc1cnc(N)nc1N	> 32 µg/mL
COc1ccc(OCCCCCCC(=O)O)cc1Cc1cnc(N)nc1N	> 32 µg/mL
COc1ccc(OCc2ccc(C(=O)O)cc2)cc1Cc1cnc(N)nc1N	> 32 µg/mL
COc1ccc(CCCCCCC(=O)O)cc1Cc1cnc(N)nc1N	> 32 µg/mL
COc1ccc(OCCCCC(=O)O)cc1Cc1cnc(N)nc1N	> 32 µg/mL
COc1ccc(C#Cc2cccc(C(=O)O)c2)cc1Cc1cnc(N)nc1N	> 64 µg/mL

test system: Mycobacterium avium; test: Concentration of compound required against Mycobacterium aviumRange is 2-32; type: functional, organism-based

SMILES	Concentration
COc1ccc(OCCCCCCC(=O)O)cc1Cc1cnc(N)nc1N	32 µg/mL

test system: Mycobacterium avium; test: Minimum inhibitory concentration required for 90 percent inhibition of Mycobacterium avium isolate; type: functional

SMILES	MIC90
COc1ccc(OCCCCCCC(=O)O)cc1Cc1cnc(N)nc1N	32 µg/mL (≈ 85.5 µM)
COc1ccc(OCCCCC(=O)O)cc1Cc1cnc(N)nc1N	32 µg/mL (≈ 92.4 µM)

test system: Mycobacterium avium; test: Minimum inhibitory concentration required for 50 percent inhibition of Mycobacterium avium isolate; type: functional

SMILES	MIC50
COc1ccc(OCCCCCCC(=O)O)cc1Cc1cnc(N)nc1N	4 µg/mL (≈ 10.7 µM)
COc1ccc(OCCCCC(=O)O)cc1Cc1cnc(N)nc1N	16 µg/mL (≈ 46.2 µM)

From ChEMBL document CHEMBL1149100, “New 2,4-diamino-5-(2',5'-substituted benzyl)pyrimidines as potential drugs against opportunistic infections of AIDS and other immune disorders. Synthesis and species-dependent antifolate activity” (J Med Chem, 2004)
